Measured values as given in PMC6027146, “Synthesis and Structure-Activity Relationships of (−)-cis-N-Normetazocine-Based LP1 Derivatives” (Pharmaceuticals, 2018).
“Also recorded” adds a separate entry of the source. Like-named read-outs stand apart in the source and are kept apart here.

Experiments:
rat-DOR = biological target: T1, rat-DOR (Rattus norvegicus, UniProt P33533); experiment: Radioligand competition binding, [3H]-DPN, HEK293 membranes, DOR
T1 construct: expressed in transfected cells
Procedure: (§1) All synthesized compounds were tested in vitro by radioligand competition binding using [^3H]-diprenorphine ([^3H]-DPN) to measure the affinity for opioid receptor subtypes in membranes from HEK293 cells stably expressing either MOR, DOR, or KOR, as previously described.
(§2) Confluent monolayers of HEK293 (human embryonic kidney 293) cells stably expressing rat-MOR, rat-DOR, or human-KOR were harvested, collected by centrifugation at 1500 rpm for 5 min, and washed once with phosphate-buffered saline (PBS) at pH 7.5. Membranes from cell pellets were carried out as described by Georgoussi and Zioudrou (1993) and Papakonstantinou et al. (2015). Briefly, cell pellets were resuspended in ice-cold membrane buffer (10 mM Tris-HCl, pH 7.5 and 0.1 mM EDTA), homogenized, and centrifuged at 2,000 g for 3 min at 4 °C. Supernatants were further centrifuged at 45,000 rpm for 30 min at 4 °C. The membrane pellet was resuspended in ice-cold membrane buffer at a protein concentration of approximately 1 mg/mL and stored in aliquots at −70 °C. Protein concentration was determined according to Bradford assay.
(§3) In the experiments designed to define compound affinity and selectivity for MOR, DOR, and KOR, membranes expressing each of these opioid receptors ([…]) were incubated at 30 °C for 45 min in buffer containing 50 mM Tris-HCl, pH 7.5, 100 mM NaCl, and 10 mM MgCl2 as described by Georgoussi et al. […] The ability of compounds 10–16 to displace [^3H]-DPN (3.75 nM) binding to the opioid receptors was assessed as described by Morou And Georgoussi (2005). Non-specific binding was measured in the presence of […] Naloxone. The reaction was stopped by rapid filtration and three washes in ice-cold 50 mM Tris-HCl, pH 7.4, through GF/C filters (Whatman, Maidstone, UK) using an automated cell harvester (Brandel Inc., Gaithersburg, MD, USA). The radioactivity was measured by liquid scintillation counting (Liquid Scintillation Analyzer, Packard).
(§4) Analysis of the binding data was performed using the Origin 7.5 software (OriginLab Corporation, Northampton, MA, USA). In calcium mobilization experiments, data were analyzed by non-linear curve fitting equation, using GraphPad 5.0 software. […] Ligand efficacy was expressed as intrinsic activity (α), calculated as the ratio between the Emax of the ligand and that of the respective standards. Calcium mobilization data were expressed as FIU (fluorescence intensity units) in percent, over the baseline. Agonist potencies are given as pEC50 (the negative logarithm to base 10 of the molar concentration of an agonist that produces 50% of the maximal possible effect, Emax). Concentration response curves to agonists were fitted with the following equation: Effect = baseline + (Emax − baseline)/(1+10^(LogEC50 − X) ∗ HillSlope) where X is the agonist concentration.

rat-MOR = biological target: T2, rat-MOR (Rattus norvegicus, UniProt P33535); experiment: Radioligand competition binding, [3H]-DPN, HEK293 membranes, MOR
T2 construct: expressed in transfected cells
Procedure: as §1, §2, §3, §4

recombinant human DOR = biological target: T3, recombinant human DOR (Homo sapiens, UniProt P41143); experiment: Calcium mobilization assay, CHO-DOR cells expressing GαqG66Di5; type: cell-based; conditions: for DOR pEC50 (CL95%): agonist mode, crc incomplete = incomplete concentration response curve at 10 μM; for DOR pEC50 (CL95%) / DOR pKB (CL95%): Inactive = inactive at 10 μM; for DOR pKB (CL95%): antagonist mode, DPDPE as agonist; for functional profile at DOR: calcium mobilization
T3 construct: expressed in transfected cells; supplied by Dr. Eva Varga (University of Arizona); infected with a retrovirus for GαqG66Di5
Procedure: (§5) The pharmacological characterization of LP1 derivatives 2 and 10–16 was performed by calcium mobilization assay (Table 2). This procedure was preliminarily validated through a series of experiments where the effects of DPDPE, dermorphin, and dynorphin A were assessed in CHO cells expressing the human recombinant opioid receptors and Gαqi5 or GαqG66Di5 chimeric proteins.
(§6) Chinese hamster ovary (CHO) cells expressing the recombinant human MOR and KOR (CHO^MOR and CHO^KOR) were kindly provided by Dr. Larry Toll (SRI International, Menlo Park, CA, USA), and CHO cells expressing the recombinant human DOR (CHO^DOR) were supplied by Dr. Eva Varga (Department of Medical Pharmacology, The University of Arizona, Tucson, AZ, USA). CHO cells lines permanently coexpressing the opioid receptors and the C-terminally modified Gαqi5 were prepared by infecting the CHO lines described above with a recombinant retrovirus expressing the chimeric α subunit and the hygromycin resistance gene. Similarly, CHO cells lines permanently coexpressing DOR and the C-terminally modified GαqG66Di5 were prepared by infecting the CHO lines described above with a recombinant retrovirus expressing the chimeric α subunit and the hygromycin resistance gene. Polyclonal cell lines were generated using the pantropic retroviral expression system form BD-Clontech, as described previously. Stable lines were selected under hygromycin B (100 μg/mL) and geneticin (600 μg/mL) for 2–3 weeks after the infection.
(§7) CHO cells, expressing human opioid receptors and the Gαqi5 protein, and CHODOR, expressing the GαqG66Di5 protein, were maintained in culture medium consisting of Dulbecco minimum essential medium (DMEM) and Ham F-12 (1:1) (50/50) supplemented with 10% fetal calf serum (FCS), L-glutamine (2 mM), geneticin (200 μg/mL; G418), hygromycin B (100 μg/mL) at 37 °C in 5% CO2 humidified air. When confluence was reached (3–4 days), cells were subcultured as required using trypsin/EDTA, and used for experimentation. The different cell lines were seeded at a density of […] into black 96-well, clear-bottomed plates. After 24 h incubation, the cells were loaded with medium supplemented with 2.5 mM probenecid, 3 μM of the calcium sensitive fluorescent dye Fluo-4 AM, and 0.01% pluronic acid, for 30 min at 37 °C. Afterwards, the loading solution was aspirated and 100 μL/well of assay buffer—HBSS supplemented with 20 mM HEPES, 2.5 mM probenecid and 500 μM Brilliant Black (Aldrich, St. Louis, MO, USA)—was added. Serial dilutions of ligands for experimental use were made in HBSS/HEPES (20 mM) buffer (containing 0.005% BSA fraction V). After placing both plates (cell culture and compound plate) into the FlexStation II (Molecular Device, Union City, San Jose, CA 94587, USA), fluorescence changes were measured at room temperature. Online additions were carried out in a volume of 50 μL/well. Antagonists were incubated 15 min before the addition of the agonist. Maximum change in fluorescence, expressed in percent of baseline fluorescence, was used to determine agonist response.
as §4, with “concentration. […]” for “concentration.”

human-KOR [1] = biological target: T4, human-KOR (Homo sapiens, UniProt P41145); experiment: Radioligand competition binding, [3H]-DPN, HEK293 membranes, KOR; set-up: expressed in transfected cells
Procedure: as §1, §2, §3, §4

human-KOR [2] = biological target: T4, human-KOR; experiment: Calcium mobilization assay, CHO-KOR cells expressing Gαqi5; type: cell-based; set-up: expressed in transfected cells; gift of Dr. Larry Toll (SRI International); infected with a retrovirus for Gαqi5; conditions: for KOR pEC50 (CL95%): agonist mode, crc incomplete = incomplete concentration response curve at 10 μM; for KOR pEC50 (CL95%) / KOR pKB (CL95%): Inactive = inactive at 10 μM; for KOR pKB (CL95%): antagonist mode, dynorphin A as agonist; for functional profile at KOR: calcium mobilization
Procedure: as §5, §6, §7
as §4, with “concentration. […]” for “concentration.”

recombinant human MOR = biological target: T5, recombinant human MOR (Homo sapiens, UniProt P35372); experiment: Calcium mobilization assay, CHO-MOR cells expressing Gαqi5; type: cell-based; conditions: for functional profile at MOR: calcium mobilization; for intrinsic activity (α) at MOR: ratio of Emax of ligand to that of the standard; for MOR pEC50 (CL95%): agonist mode, Inactive = inactive at 10 μM, crc incomplete = incomplete concentration response curve at 10 μM
T5 construct: expressed in transfected cells; gift of Dr. Larry Toll (SRI International); infected with a retrovirus for Gαqi5

SMILES | Ki (rat-DOR) | Ki (rat-MOR) | DOR pEC50 (CL95%) (recombinant human DOR) | DOR pKB (CL95%) (recombinant human DOR) | Ki (human-KOR [1]) | KOR pEC50 (CL95%) (human-KOR [2]) | EC50 (recombinant human MOR) | functional profile at MOR (recombinant human MOR) | intrinsic activity (α) at MOR (recombinant human MOR) | Kb (recombinant human DOR) | functional profile at DOR (recombinant human DOR) | Kb (human-KOR [2]) | KOR pKB (CL95%) (human-KOR [2]) | functional profile at KOR (human-KOR [2]) | melting point | Kb (recombinant human MOR) | MOR pEC50 (CL95%) (recombinant human MOR) | other results
C[C@H]1[C@H]2Cc3ccc(O)cc3[C@]1(C)CCN2CCC(=O)Nc1ccc(F)cc1 [Compound 10, N-(4-Fluorophenyl)-3-[(2R,6R,11R)-8-hydroxy-6,11-dimethyl-1,4,5,6-tetrahydro-2,6-methano-3-benzazocin-3(2H)-yl]propanamide] | 920 ± 120 nM | 0.28 ± 0.013 µM | able to stimulate calcium mobilization, but only at the higher concentration tested; also recorded: crc incomplete | Inactive | 4.8 ± 0.95 µM | crc incomplete | 2140 nM | MOR partial agonists | 0.30 ± 0.015 |  |  |  |  |  |  |  |  | 
Cc1ccc(NC(=O)CCN2CC[C@@]3(C)c4cc(O)ccc4C[C@@H]2[C@@H]3C)cc1 [Compound 11, 3-[(2R,6R,11R)-8-Hydroxy-6,11-dimethyl-1,4,5,6-tetrahydro-2,6-methano-3-benzazocin-3(2H)-yl]-N-(4-methylphenyl)propanamide] | 410 ± 23 nM | 0.24 ± 0.015 µM | Inactive |  | 1.01 ± 0.11 µM | Inactive | 1410 nM | MOR partial agonists | 0.23 ± 0.011 | 1480 nM | DOR/KOR antagonists | 1410 nM | able to inhibit the stimulatory effects induced by dynorphin A | DOR/KOR antagonists |  |  |  | 
C[C@H]1[C@H]2Cc3ccc(O)cc3[C@]1(C)CCN2CCC(=O)Nc1ccc(C#N)cc1 [Compound 12, N-(4-Cyanophenyl)-3-[(2R,6R,11R)-8-hydroxy-6,11-dimethyl-1,4,5,6-tetrahydro-2,6-methano-3-benzazocin-3(2H)-yl]propanamide] | 380 ± 34 nM | 0.21 ± 0.024 µM | Inactive |  | 0.85 ± 0.18 µM | Inactive | 1020 nM | MOR partial agonists | 0.34 ± 0.017 | 1510 nM | DOR/KOR antagonists | 1260 nM | able to inhibit the stimulatory effects induced by dynorphin A | DOR/KOR antagonists |  |  |  | 
COc1ccc(NC(=O)CCN2CC[C@@]3(C)c4cc(O)ccc4C[C@@H]2[C@@H]3C)cc1 [Compound 13, 3-[(2R,6R,11R)-8-Hydroxy-6,11-dimethyl-1,4,5,6-tetrahydro-2,6-methano-3-benzazocin-3(2H)-yl]-N-(4-methoxyphenyl)propanamide] | 1100 ± 110 nM | 0.18 ± 0.011 µM | Inactive | Inactive | 4 ± 0.18 µM | Inactive |  |  |  |  |  |  | Inactive |  | 172.9 to 173.5 °C | 501 nM | Inactive | 
C[C@H]1[C@H]2Cc3ccc(O)cc3[C@]1(C)CCN2CCC(=O)N1CCCc2ccccc21 [Compound 15, 1-(3,4-Dihydroquinolin-1(2H)-yl)-3-[(2R,6R,11R)-8-hydroxy-6,11-dimethyl-1,4,5,6-tetrahydro-2,6-methano-3-benzazocin-3(2H)-yl]-propan-1-one] |  |  | Inactive | Inactive |  |  |  |  |  |  |  |  |  | partial agonist of KOR | 92.2 °C (dec.) |  | Inactive | Ki (rat-MOR; [3H]-DPN displacement, means ± SEM of three experiments in duplicate, read-out: Ki (μM) ± SEM MOR): 0.36 ± 0.023 µM; Ki (human-KOR [1]; [3H]-DPN displacement, means ± SEM of three experiments in duplicate, read-out: Ki (μM) ± SEM KOR): 0.2 ± 0.02 µM; intrinsic activity (α) at KOR (human-KOR [2]; ratio of Emax of ligand to that of the standard): 0.32 ± 0.016; EC50 (human-KOR [2]; read-out: KOR pEC50 (CL95%) (converted)): 257 nM
C[C@H]1[C@H]2Cc3ccc(O)cc3[C@]1(C)CCN2CCC(=O)N(c1ccccc1)c1ccccc1 [Compound 16, 3-[(2R,6R,11R)-8-Hydroxy-6,11-dimethyl-1,4,5,6-tetrahydro-2,6-methano-3-benzazocin-3(2H)-yl]-N,N-diphenylpropanamide] |  | 0.17 ± 0.013 µM | Inactive | Inactive | 0.2 ± 0.03 µM | Inactive |  | MOR/KOR antagonist |  |  |  | 776 nM | able to inhibit the stimulatory effects induced by dynorphin A | MOR/KOR antagonist | 173.5 °C (dec.) | 759 nM | Inactive | 
